From article PMC8151276, “An Integrated Approach toward NanoBRET Tracers for Analysis of GPCR Ligand Engagement” (Molecules, 2021)

Target: T1, HRH3 (Homo sapiens, UniProt Q9Y5N1)
T1 construct: purchased Promega (in-house HiBiT-GPCR construct library, NanoBRET)
Experiment: NanoBRET screen HiBiT-HRH3 in HEK293
Type: binding
Experimental: Each tracer candidate was screened across the entire library of HiBiT-GPCR constructs using NanoBRET as the detection modality. As depicted in Figure 4A, the specificity of interactions was evaluated through decrease in BRET due to competitive displacement of a bound tracer by excess parental compound. Each tracer was analyzed for binding to each HiBiT-GPCR fusion in the absence and in the presence of competing parental compound. Briefly, HEK293 cells were transfected with HiBiT-GPCR constructs diluted into promoterless DNA to reduce expression and maximize translocation to the cell surface. Each tracer candidate was then screened at concentrations of 1 μM and 0.1 μM across cells expressing these fusions. Cells were treated for 1.5 h with tracer either alone or in the presence of 20 μM competing parental compound (i.e., control). BRET was measured upon addition of purified LgBiT and subsequent complementation with HiBiT genetically fused to a GPCR. The specificity of interactions was assessed through a decrease in BRET signal due to competitive displacement of the bound tracer. To further gauge the robustness of these interactions, the fold response over the control (i.e., BRETtracer/BRETcontrol) was calculated. We chose a 1.5-fold response, which translates to ≥7-fold signal over noise as the minimal threshold required to score an interaction as positive. […]. Below we highlight the screening results obtained for our exemplary fluorescent tracers based on Clozapine, Amitriptyline and AZD1283.
HiBiT-GPCR DNA constructs were diluted in 10 mM Tris pH 8 to a final concentration of 0.01 μg/μL, arrayed in 96-well plates and stored at −20 °C. For transfection, HEK293 cells were suspended in Opti-MEM (without phenol red) supplemented with 2% fetal bovine serum (Seradigm) and 100 units/mL penicillin–streptomycin (Gibco) at a final concentration of 220,000 cells/mL and dispensed into white 96-well plates at 90 μL/well. Subsequent transfections and screens were carried using an Agilent Bravo Automated Liquid Handling Platform. First, the 96-well HiBiT DNA arrays were diluted 25-fold in Opti-MEM (without serum or phenol red) to a final concentration of 0.0004 μg/μL and 20 μL of the diluted DNAs were transferred into new 96-well plates. Next, promoterless carrier DNA (1 μg/μL) was diluted 25-fold (0.04 μg/μL) and then dispensed into the diluted arrays at 20 μL/well. Following brief mixing, Viafect transfection reagent (Promega) diluted 16-fold into Opti-MEM was dispensed into the plates at 40 μL/well. After mixing by pipetting, plates were incubated for 10 min on the pipetting station deck. The DNA-transfection reagent complexes were then added to plates containing cells. To facilitate the screen, 10 μL of DNA-transfection reagent complexes were added in duplicates to the top 4 and bottom 4 rows, resulting in two identical 48-well arrays per plate. Plates with transfected cells were incubated for 18–20 h at 37 °C/5% CO2. A screen of each tracer across the entire library using two different concentrations requires duplicate plates of transfected cells. Depending on the number of tracers being screened, transfections can be scaled up using the same ratios. The next day, for each tracer, four 20× screening solutions in tracer dilution buffer (Promega) were prepared: two duplicates at final concentration of 20 μM and two duplicates at a final concentration of 2 μM. A competing unmodified compound was added to one of each duplicate at a final concentration of 400 μM. The four resulting solutions were diluted 4-fold in Opti-MEM without serum or phenol red to generate 5× solutions (5 µM and 0.5 µM tracer +/− 100 μM competing compound). To screen the library, a BioTek MultiFlo FX liquid dispenser was used to dispense 22.5 µL of tracer solution to the top 4 rows and 22.5 µL tracer + competing compound solution to the 4 bottom rows. Plates were briefly mixed on an orbital shaker and incubated for 1.5 h at room temperature. […]

T1 sequence (Q9Y5N1 whole entry): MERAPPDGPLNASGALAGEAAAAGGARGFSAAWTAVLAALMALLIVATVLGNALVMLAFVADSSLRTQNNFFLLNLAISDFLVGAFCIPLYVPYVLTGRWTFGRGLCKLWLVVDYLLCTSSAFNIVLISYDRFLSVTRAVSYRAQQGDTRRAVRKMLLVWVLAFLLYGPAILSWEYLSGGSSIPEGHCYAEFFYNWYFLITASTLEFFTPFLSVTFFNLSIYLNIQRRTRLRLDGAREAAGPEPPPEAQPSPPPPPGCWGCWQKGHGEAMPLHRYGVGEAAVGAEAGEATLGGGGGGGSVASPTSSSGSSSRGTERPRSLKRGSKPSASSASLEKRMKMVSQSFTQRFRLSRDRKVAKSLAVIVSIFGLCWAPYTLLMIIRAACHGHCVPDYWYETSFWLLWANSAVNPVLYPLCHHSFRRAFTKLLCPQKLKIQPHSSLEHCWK

SMILES	NanoBRET Fold Response (HRH3, tracer 0.1μM)	NanoBRET Fold Response (HRH3, tracer 1μM)	further results
CCOC(=O)c1cc(C#N)c(N2CCC(C(=O)NS(=O)(=O)Cc3ccccc3/C=C/C(=O)NCCNC(=O)CCc3ccc4n3[B-](F)(F)[N+]3=C(c5ccc[nH]5)C=CC3=C4)CC2)nc1C [AZD1283-1-NB590]	–	–	NanoBRET Fold Response (HRH3, 0.1μM): 1.16; NanoBRET Fold Response (HRH3, 1μM): 0.87
N#CN=C(NCCCOc1cccc(CN2CCCCC2)c1)NCCNC(=O)CCOCCOCCOCCOCCNC(=O)CCc1ccc2n1[B-](F)(F)[N+]1=C(c3ccc[nH]3)C=CC1=C2 [Aminopotentidine-2-NB590]	2.54	2.06	–
CN(C)CCC=C1c2ccccc2CCc2ccc(C(=O)NCCNC(=O)CCOCCOCCOCCOCCNC(=O)CCc3ccc4n3[B-](F)(F)[N+]3=C(c5ccc[nH]5)C=CC3=C4)cc21 [Amitriptyline-a-2-NB590]	–	–	NanoBRET Fold Response (tracer at 0.1μM): 1.01; NanoBRET Fold Response (tracer at 1μM): 0.94
CN(C)CCC=C1c2ccccc2CCc2ccc(C(=O)NCCNC(=O)CCOCCOCCOCCOCCNC(=O)CCc3ccc4n3[B-](F)(F)[N+]3=C(c5ccc[nH]5)C=CC3=C4)cc21 [Amitriptyline-b-2-NB590]	–	–	NanoBRET Fold Response (tracer at 0.1μM, listed as amitriptyline-b-2-NB590): 1.62; NanoBRET Fold Response (tracer at 1μM, listed as amitriptyline-b-2-NB590): 1.31
CN(CCC=C1c2ccccc2CCc2ccccc21)C(=O)CCOCCOCCOCCOCCNC(=O)CCc1ccc2n1[B-](F)(F)[N+]1=C(c3ccc[nH]3)C=CC1=C2 [Amitriptyline-e-2-NB590]	–	–	NanoBRET Fold Response (tracer at 1μM): 0.95
COc1ccc2c(n1)c(CCNC(C)=O)cn2CCNC(=O)CCc1ccc2n1[B-](F)(F)[N+]1=C(c3ccc[nH]3)C=CC1=C2 [Azamelatonin-1-NB590]	–	–	NanoBRET Fold Response (0.1μM tracer): 1.07; NanoBRET Fold Response (1μM tracer): 1.07
COc1ccc2[nH]c(-c3ccc(CNC(=O)CCOCCOCCOCCOCCNC(=O)CCc4ccc5n4[B-](F)(F)[N+]4=C(c6ccc[nH]6)C=CC4=C5)cc3)c(CCNC(C)=O)c2n1 [AzomelatoninICO9-2-NB590]	–	–	NanoBRET Fold Response (0.1μM tracer): 1.09; NanoBRET Fold Response (1μM tracer): 1.03
O=C(CCOCCOCCOCCOCCNC(=O)CCc1ccc2n1[B-](F)(F)[N+]1=C(c3ccc[nH]3)C=CC1=C2)NCCCN1CCN(C2=Nc3cc(Cl)ccc3Nc3ccccc32)CC1 [Clozapine-a-2-NB590]	–	–	NanoBRET Fold Response (HRH3, 0.1μM tracer): 0.97; NanoBRET Fold Response (HRH3, 1μM tracer): 0.91
CN1CCN(C2=Nc3cc(Cl)ccc3Nc3ccc(CNC(=O)CCOCCOCCOCCOCCNC(=O)CCc4ccc5n4[B-](F)(F)[N+]4=C(c6ccc[nH]6)C=CC4=C5)cc32)CC1 [Clozapine-b-2-NB590]	–	–	NanoBRET Fold Response (HRH3, 0.1μM tracer): 0.98; NanoBRET Fold Response (HRH3, 1μM tracer): 1.06
CN1CCN(C2=Nc3cc(Cl)ccc3N(CC(=O)NCCOCCOCCOCCOCCNC(=O)CCc3ccc4n3[B-](F)(F)[N+]3=C(c5ccc[nH]5)C=CC3=C4)c3ccccc32)CC1 [Clozapine-c-2-NB590]	–	–	NanoBRET Fold Response (HRH3, 0.1μM tracer): 0.98; NanoBRET Fold Response (HRH3, 1μM tracer): 0.86
O=C(CCOCCOCCOCCOCCNC(=O)CCc1ccc2n1[B-](F)(F)[N+]1=C(c3ccc[nH]3)C=CC1=C2)NCCCN1CCN(C2=Nc3ccccc3Oc3ccc(Cl)cc32)CC1 [Loxapine-a-2-NB590]	1.06	1.01	–
COc1ccccc1N1CCN(CCCCN2C(=O)c3ccc(CNC(=O)CCOCCOCCOCCOCCNC(=O)CCc4ccc5n4[B-](F)(F)[N+]4=C(c6ccc[nH]6)C=CC4=C5)cc3C2=O)CC1 [NAN-190-2-NB590]	0.98	0.97	–
COc1ccccc1N1CCN(CCCCN2C(=O)c3ccc(CNC(=O)CCOCCNC(=O)c4ccc(CNC(=O)CCc5ccc6n5[B-](F)(F)[N+]5=C(c7ccc[nH]7)C=CC5=C6)cc4)cc3C2=O)CC1 [NAN-190-3-NB590]	1.38	0.93	–
O=C(CCc1ccc2n1[B-](F)(F)[N+]1=C(c3ccc[nH]3)C=CC1=C2)NCc1ccc(C(=O)NCCOCCC(=O)N[C@@H]2CC[C@@]3(O)[C@H]4Cc5ccc(O)c6c5[C@@]3(CCN4CC3CC3)[C@H]2O6)cc1 [Naltrexone-3-NB590]	0.76	0.77	–
Cc1cc2c(s1)Nc1ccccc1N=C2N1CCN(CCCNC(=O)CCOCCOCCOCCOCCNC(=O)CCc2ccc3n2[B-](F)(F)[N+]2=C(c4ccc[nH]4)C=CC2=C3)CC1 [Olanzapine-a-2-NB590]	1.06	1.16	–
O=C(CCc1ccc2n1[B-](F)(F)[N+]1=C(c3ccc[nH]3)C=CC1=C2)NCc1ccc(C(=O)NCCOCCOCCNCC(O)COc2cccc3ccccc23)cc1 (centres unmarked) [Propranolol-3-NB590]	–	–	NanoBRET Fold Response (HRH3, 0.1μM): 0.97; NanoBRET Fold Response (HRH3, 1μM): 1.00
O=C(CCc1ccc2n1[B-](F)(F)[N+]1=C(c3ccc[nH]3)C=CC1=C2)NCCOCCOCCNC(=O)OCCOCCN1CCN(C2=Nc3ccccc3Sc3ccccc32)CC1 [Quetiapine-a-2-NB590]	1.09	0.98	–
Cc1nc2n(c(=O)c1CCN1CCC(c3noc4cc(F)ccc34)CC1)CCCC2OC(=O)NCCOCCOCCOCCOCCNC(=O)CCc1ccc2n1[B-](F)(F)[N+]1=C(c3ccc[nH]3)C=CC1=C2 (centres unmarked) [Risperidone-2-NB590]	1.07	1.58	–
CC(C)N(CC[C@H](c1ccccc1)c1cc(CCNC(=O)CCOCCOCCOCCOCCNC(=O)CCc2ccc3n2[B-](F)(F)[N+]2=C(c4ccc[nH]4)C=CC2=C3)ccc1O)C(C)C [Tolterodine-2-NB590]	1.49	1.07	–
CC(C)N(CC[C@H](c1ccccc1)c1cc(CCNC(=O)c2ccc(CNC(=O)CCc3ccc4n3[B-](F)(F)[N+]3=C(c5ccc[nH]5)C=CC3=C4)cc2)ccc1O)C(C)C [Tolterodine-BZ-NB590]	1.16	1.28	–
CCCn1c(=O)c2[nH]c(-c3ccc(OCC(=O)NCCNC(=O)CCOCCNC(=O)c4ccc(CNC(=O)CCc5ccc6n5[B-](F)(F)[N+]5=C(c7ccc[nH]7)C=CC5=C6)cc4)cc3)nc2n(CCC)c1=O [XAC-3-NB590]	0.81	1.33	–
